Results: US5686486A, “4-hydroxy-benzopyran-2-ones and 4-hydroxy-cycloalkyl[b]pyran-2-ones useful to treat retroviral infections” (priority 1995, dated 1997)
pIC50: −log10 of the molar value. “And” between values parts separate entries of the source, which are not always exact repeats. Equal values may be shown once. Where a name gives a salt, the structure may show the parent alone. Read-outs that look alike come from different tables or passages of the source.

Target: HIV-1 protease (Human immunodeficiency virus type 1 group M subtype B, UniProt P04585)
Assay: biochemical
Settings: for inhibition at 20 µM: read-out: HIV-1 Protease % Inhib, dose 20.000 uM; for inhibition at 200 µM: read-out: HIV-1 Protease % Inhib, dose 200.000 uM; for pIC50: HIV-1 Protease IC50
Experimental: The HIV protease screening assay is based on fluorescently labeled substrate which can be resolved from nonlabeled cleavage product using special beads coated with streptavidin. The substrate is biotinylated at the amino terminal arginine and fluorescently labeled with fluorescein isothiocynate (FITC) at the carboxyl terminal lysine. This assay has been employed to detect novel, nonpeptidic inhibitors of HIV-1 protease. Substrate (20 μl of 0.2 μM), sample (10 μl of desired concentration), and enzyme (10 μl of 0.1 μM) are added to a 96 well pandex plate. The assay is run in 0.1M sodium acetate buffer at pH 5.5 in the presence of 1.0M sodium chloride and 0.05% NP-40 with incubated in the dark for one hour at room temperature. Strepavidin coated polystyrene beads {40 μl of 0.1% (w/v)} are added and the plate is incubated in the dark for an additional half hour. The labeled cleavage product is separated from the unreacted substrate via filtration and is read on the Idexx screen machine. The data are analyzed by appropriate computer algorithms to ascertain percent inhibition values.

[1] = read-out: HIV-1 Protease % Inhib, dose 10.000 uM
[2] = read-out: HIV-1 Protease % Inhib, dose 100.000 uM
[3] = dose 1.000 uM, read-out: HIV-1 Protease % Inhib
[4] = dose 10.000 uM, read-out: HIV-1 Protease % Inhib
[5] = dose 100.000 uM, read-out: HIV-1 Protease % Inhib
[6] = read-out: HIV-1 Protease % Inhib, dose 1.000 uM

| SMILES | inhibition at 10 µM [1] [%] | inhibition at 100 µM [2] [%] | inhibition at 1 µM [6] [%] | pIC50 | further results |
| --- | --- | --- | --- | --- | --- |
| O=c1oc2ccccc2c(O)c1CCc1ccccc1 [Example 1, 4-Hydroxy-3-phenethylcoumarin] | 15.3 | 66.9 | – | – | inhibition at 20 µM: 51.6%; inhibition at 200 µM: 92.8% |
| O=c1oc2ccccc2c(O)c1CCCc1ccccc1 [Example 2, 4-Hydroxy-3-(3-phenylpropyl)coumarin] | 15.6 | 63.6 | – | – | inhibition at 20 µM: 48.1%; inhibition at 200 µM: 97.5% |
| O=c1oc2ccccc2c(O)c1Cc1ccc2ccccc2c1 [Example 3, 4-Hydroxy-3-(2-naphthylmethyl)coumarin] | – | – | – | – | inhibition at 1 µM [3]: < 10%; inhibition at 10 µM [4]: < 10%; inhibition at 100 µM [5]: 48.8% |
| O=c1oc2ccccc2c(O)c1CC(c1ccccc1)c1ccccc1 [Example 4, 4-Hydroxy-3-(2,2-diphenylethyl)-coumarin] | 12.4 | 45.3 | < 10 | – | – |
| CC(Cc1c(O)c2ccccc2oc1=O)c1ccccc1 (centres unmarked) [Example 5, 4-Hydroxy-3-(2-phenylpropyl)coumarin] | 55.4 | 95 | 15.4 | – | – |
| CC(c1ccccc1)c1c(O)c2ccccc2oc1=O (stereo not drawn) [Example 6, 4-Hydroxy-3-(α-methylbenzyl)-coumarin] | 29.2 | 88.5 | – | – | inhibition at 20 µM: 65.6%; inhibition at 200 µM: 75.2% |
| O=c1oc2ccccc2c(O)c1C(c1ccccc1)c1ccccc1 [Example 7, 4-Hydroxy-3-diphenylmethylcoumarin] | 42.5 | 96.3 | < 10 | 4.67 | – |
| CC(O)CC(c1ccccc1)c1c(O)c2ccccc2oc1=O (centres unmarked) [Example 8, 4-Hydroxy-3-(3-hydroxy-1-phenylbutyl)-coumarin] | 23.7 | 93.3 | < 10 | 4.38 | – |
| CC(C)C(c1ccccc1)c1c(O)c2ccccc2oc1=O (centres unmarked) [Example 9, 4-Hydroxy-3-(2-methyl-1-phenylpropyl)-coumarin] | 65 | 98.3 | 12.1 | 4.98 | – |
| CC(C)C(c1ccc(Br)cc1)c1c(O)c2ccccc2oc1=O (centres unmarked) [Example 12, 3-(1-(4-Bromophenyl)-2-methylpropyl)-4-hydroxycoumarin] | – | 87.4 | – | 4.92 | inhibition at 0.098 µM (read-out: HIV-1 Protease % Inhib, dose 0.098 uM): < 10%; inhibition at 0.196 µM (read-out: HIV-1 Protease % Inhib, dose 0.196 uM): < 10%; inhibition at 0.39 µM (read-out: HIV-1 Protease % Inhib, dose 0.390 uM): < 10%; inhibition at 0.78 µM (read-out: HIV-1 Protease % Inhib, dose 0.780 uM): 14%; inhibition at 1.56 µM (read-out: HIV-1 Protease % Inhib, dose 1.560 uM): 17.1%; inhibition at 3.13 µM (read-out: HIV-1 Protease % Inhib, dose 3.130 uM): 25.4%; inhibition at 6.25 µM (read-out: HIV-1 Protease % Inhib, dose 6.250 uM): 31.9%; inhibition at 12.5 µM (read-out: HIV-1 Protease % Inhib, dose 12.500 uM): 53.8%; inhibition at 25 µM (read-out: HIV-1 Protease % Inhib, dose 25.000 uM): 66.5%; inhibition at 50 µM (read-out: HIV-1 Protease % Inhib, dose 50.000 uM): 74.7%; inhibition at 200 µM: 87% |
| O=c1oc2ccccc2c(O)c1C(Cc1ccccc1)c1ccccc1 (centres unmarked) [Example 13, 3-(1,2-Diphenylethyl)4-hydroxycoumarin] | 34.7 | 74.6 | < 10 | – | – |
| CC(C)CC(c1ccccc1)c1c(O)c2ccccc2oc1=O (centres unmarked) [Example 14, 4-Hydroxy-3-(3-methyl-1-phenylbutyl)-coumarin] | 64.6 | 87.1 | 32.2 | – | – |
| O=c1oc2ccccc2c(O)c1C(c1ccccc1)C1CC1 (centres unmarked) [Example 15, 3-(Cyclopropylphenylmethyl)-4-hydroxycoumarin] | 89.6 | – | 43.8 | 5.90 | – |
| O=c1oc2ccccc2c(O)c1C(CCc1ccccc1)c1ccccc1 (centres unmarked) [Example 16, 4-Hydroxy-3-(1,3-diphenylpropyl)-coumarin] | 48.3 | – | < 10 | – | – |
| O=c1oc2ccccc2c(O)c1C(CC1CCCCC1)c1ccccc1 (centres unmarked) [Example 17, 3-(2-Cyclohexyl-1-phenylethyl)-4-hydroxycoumarin] | 27.6 | – | < 10 | – | – |
| CCCC(c1ccc(C)cc1)c1c(O)c2ccccc2oc1=O (centres unmarked) [Example 18, 4-Hydroxy-3-(1-(4-methylphenyl)-butyl)-coumarin] | 52.5 | – | 13.4 | – | – |
| CCCC(c1ccc(CC)cc1)c1c(O)c2ccccc2oc1=O (centres unmarked) [Example 19, 3-(1-(4-Ethylphenyl)-butyl)-4-hydroxycoumarin] | 36.8 | – | < 10 | – | – |
| CCC(c1c(O)c2ccccc2oc1=O)c1cccc2ccccc12 (centres unmarked) [Example 20, 4-Hydroxy-3-(1-(1-naphthyl)-propyl)-coumarin] | 20.3 | 79.8 | < 10 | – | – |
| O=c1oc2ccccc2c(O)c1C(=Cc1ccccc1)c1ccccc1 [Example 21, 3-(1,2-Diphenylethenyl)4-hydroxycoumarin] | – | – | – | – | inhibition at 1 µM [3]: < 10%; inhibition at 10 µM [4]: 12.1%; inhibition at 100 µM [5]: 74.3% |
| CC(c1cccc(C(=O)NCC(=O)OC(C)(C)C)c1)c1c(O)c2ccccc2oc1=O (centres unmarked) [Example 22, 4-Hydroxy-3-[1-[3-[[[(1,1-dimethylethoxycarbonyl)methyl]amino]carbonyl]phenyl]ethyl]-coumarin] | < 10 | 58.7 | < 10 | – | – |
| CCC(c1cccc(NC(=O)CCNC(=O)OC(C)(C)C)c1)c1c(O)c2ccccc2oc1=O (centres unmarked) [Example 23, 4-Hydroxy-3-[1-[3-[[3-[(1,1-dimethylethoxycarbonyl)amino]-1-oxopropyl]amino]phenyl]propyl]-coumarin] | 96.6 | 104 | 46.6 | 6.18 and 6.15 | HIV-1 Protease % Inhib (dose 100.000 uM): 104.2% |
| CCC(c1cccc(NC(=O)CCN)c1)c1c(O)c2ccccc2oc1=O (centres unmarked) [Example 24, 3-[1-[3-[(3-Amino-1-oxopropyl)amino]phenyl]propyl]-4-hydroxy-coumarin, trifluoroacetate (salt)] | 24.2 | 83.7 | < 10 | – | – |
| CCC(c1cccc(NC(=O)CCc2ccccc2)c1)c1c(O)c2ccccc2oc1=O (centres unmarked) [Example 25, 4-Hydroxy-3-[1-[3-[(1-oxo-3-phenylpropyl)amino]phenyl]propyl]-coumarin] | 78.6 | 115 | 11.4 | 5.28 | – |
| CC(c1cccc(C(=O)NCc2nc3ccccc3[nH]2)c1)c1c(O)c2ccccc2oc1=O (centres unmarked) [Example 26, Coumarin, 3-[1-[3-[[[(2-benzimidazo131)methyl]amino]carbonyl]phenyl]ethyl]-4-hydroxy] | 53.6 | 95 | < 10 | 4.69 | HIV-1 Protease % Inhib (dose 100.000 uM): 80% |
| CC(c1cccc(C(=O)NCc2ccccn2)c1)c1c(O)c2ccccc2oc1=O (centres unmarked) [Example 27, Coumarin, 4-hydroxy-3-[1-[3-[[[(2-pyridinyl)methyl]amino]carbonyl]phenyl]ethyl]-] | < 10 | 72 | < 10 | – | – |
| CC(c1cccc(C(=O)NCc2ccccc2)c1)c1c(O)c2ccccc2oc1=O (centres unmarked) [Example 28, Coumarin, 4-hydroxy-3-[1-[3-[[(phenylmethyl)amino]carbonyl]phenyl]ethyl]-] | 17.9 | 81 | < 10 | – | – |
